Experimental data taken from PubChem BioAssay AID1918994 (Molecular Pharmacology Branch, DTP, NCI, 2023).
pIC50: −log10 of the molar value.

Test system: 292921-168-R-J2-PDC complex spheroid growth
Assay: Anticancer human tumor 292921-168-R-J2-PDC patient-derived pancreatic carcinoma cell line growth inhibition [AhR]
Details: for pIC50: curve of first compound; for viability, T/C: stronger effect = lower value
How it was run: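 Spheroids combined tumor cells with HUVEC endothelial cells and human MSCs as stroma. AhR antagonists were paired with standard or investigational drugs, each dosed in half-log steps down from near clinical Cmax, or from 10 microM where Cmax was unknown.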
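Note: spheroids exposed to compounds for seven days after three days of growth.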

`CC1(C)CCC(CN2CCN(c3ccc(C(=O)NS(=O)(=O)c4ccc(NCC5CCOCC5)c([N+](=O)[O-])c4)c(Oc4cnc5[nH]ccc5c4)c3)CC2)=C(c2ccc(Cl)cc2)C1` + Cc1ccccc1N=Nc1ccc(NC(=O)c2ccnn2C)c(C)c1 gave a pIC50 (second compound 0.1 µM) of 5.20, a pIC50 (second compound 0.316 µM) of 5.20 and a pIC50 (second compound 1 µM) of 5.22. For the same compound, the pIC50 (second compound 3.16 µM) was 5.26, the pIC50 (second compound 10 µM) was 5.33 and the viability, T/C (second compound 0.1 µM, first compound 0.0316 µM) was 91.2%. It also gave a viability, T/C (second compound 0.1 µM, first compound 0.1 µM) of 90.5%, a viability, T/C (second compound 0.1 µM, first compound 0.316 µM) of 109% and a viability, T/C (second compound 0.1 µM, first compound 1 µM) of 103%. It also gave a viability, T/C (second compound 0.1 µM, first compound 3.16 µM) of 112%, a viability, T/C (second compound 0.1 µM, first compound 10 µM) of 16.8% and a viability, T/C (second compound 0.316 µM, first compound 0.0316 µM) of 88.3%. The viability, T/C (second compound 0.316 µM, first compound 0.1 µM) was 89.3%, the viability, T/C (second compound 0.316 µM, first compound 0.316 µM) was 97.4% and the viability, T/C (second compound 0.316 µM, first compound 1 µM) was 96%. For the same compound, the viability, T/C (second compound 0.316 µM, first compound 3.16 µM) was 108%, the viability, T/C (second compound 0.316 µM, first compound 10 µM) was 19% and the viability, T/C (second compound 1 µM, first compound 0.0316 µM) was 96.8%. The viability, T/C (second compound 1 µM, first compound 0.1 µM) was 101%, the viability, T/C (second compound 1 µM, first compound 0.316 µM) was 77.8% and the viability, T/C (second compound 1 µM, first compound 1 µM) was 95.1%. The viability, T/C (second compound 1 µM, first compound 3.16 µM) was 100%, the viability, T/C (second compound 1 µM, first compound 10 µM) was 16.2% and the viability, T/C (second compound 3.16 µM, first compound 0.0316 µM) was 79.8%. For the same compound, the viability, T/C (second compound 3.16 µM, first compound 0.1 µM) was 77.3%, the viability, T/C (second compound 3.16 µM, first compound 0.316 µM) was 75.3% and the viability, T/C (second compound 3.16 µM, first compound 1 µM) was 84%. It also gave a viability, T/C (second compound 3.16 µM, first compound 3.16 µM) of 96.4%, a viability, T/C (second compound 3.16 µM, first compound 10 µM) of 15.1% and a viability, T/C (second compound 10 µM, first compound 0.0316 µM) of 65.4%. It also gave a viability, T/C (second compound 10 µM, first compound 0.1 µM) of 63.5%, a viability, T/C (second compound 10 µM, first compound 0.316 µM) of 53.9% and a viability, T/C (second compound 10 µM, first compound 1 µM) of 72.5%. It also gave a viability, T/C (second compound 10 µM, first compound 3.16 µM) of 77.6% and a viability, T/C (second compound 10 µM, first compound 10 µM) of 19.3%.

With `CCN(c1cc(-c2ccc(CN3CCOCC3)cc2)cc(C(=O)NCc2c(C)cc(C)[nH]c2=O)c1C)C1CCOCC1` + Cc1ccccc1N=Nc1ccc(NC(=O)c2ccnn2C)c(C)c1 the pIC50 (second compound 0.1 µM) was < 5.52, the pIC50 (second compound 0.316 µM) was < 5.52 and the pIC50 (second compound 1 µM) was < 5.52. For the same compound, the pIC50 (second compound 3.16 µM) was < 5.52, the pIC50 (second compound 10 µM) was 5.84 and the viability, T/C (second compound 0.1 µM, first compound 0.00949 µM) was 98.1%. It also gave a viability, T/C (second compound 0.1 µM, first compound 0.03 µM) of 90.7%, a viability, T/C (second compound 0.1 µM, first compound 0.0949 µM) of 96.7% and a viability, T/C (second compound 0.1 µM, first compound 0.3 µM) of 89.5%. It also gave a viability, T/C (second compound 0.1 µM, first compound 0.949 µM) of 86%, a viability, T/C (second compound 0.1 µM, first compound 3 µM) of 80.5% and a viability, T/C (second compound 0.316 µM, first compound 0.00949 µM) of 93.4%. The viability, T/C (second compound 0.316 µM, first compound 0.03 µM) was 85.2%, the viability, T/C (second compound 0.316 µM, first compound 0.0949 µM) was 81.7% and the viability, T/C (second compound 0.316 µM, first compound 0.3 µM) was 80.7%. The viability, T/C (second compound 0.316 µM, first compound 0.949 µM) was 71.9%, the viability, T/C (second compound 0.316 µM, first compound 3 µM) was 76.8% and the viability, T/C (second compound 1 µM, first compound 0.00949 µM) was 82.1%. The viability, T/C (second compound 1 µM, first compound 0.03 µM) was 87.8%, the viability, T/C (second compound 1 µM, first compound 0.0949 µM) was 88.8% and the viability, T/C (second compound 1 µM, first compound 0.3 µM) was 79.1%. It also gave a viability, T/C (second compound 1 µM, first compound 0.949 µM) of 85.7%, a viability, T/C (second compound 1 µM, first compound 3 µM) of 69.5% and a viability, T/C (second compound 3.16 µM, first compound 0.00949 µM) of 72.2%. It also gave a viability, T/C (second compound 3.16 µM, first compound 0.03 µM) of 74.9%, a viability, T/C (second compound 3.16 µM, first compound 0.0949 µM) of 72.5% and a viability, T/C (second compound 3.16 µM, first compound 0.3 µM) of 68.2%. For the same compound, the viability, T/C (second compound 3.16 µM, first compound 0.949 µM) was 67.3%, the viability, T/C (second compound 3.16 µM, first compound 3 µM) was 58.8% and the viability, T/C (second compound 10 µM, first compound 0.00949 µM) was 57%. The viability, T/C (second compound 10 µM, first compound 0.03 µM) was 58.2%, the viability, T/C (second compound 10 µM, first compound 0.0949 µM) was 51% and the viability, T/C (second compound 10 µM, first compound 0.3 µM) was 57.4%. For the same compound, the viability, T/C (second compound 10 µM, first compound 0.949 µM) was 53% and the viability, T/C (second compound 10 µM, first compound 3 µM) was 44.8%.
